The source of these data is US12492189B2, “Solid forms of an HIV capsid inhibitor” (Gilead Sciences, Inc., priority 2017, dated 2025).

The test system of one data set is HIV-IIIb. Kind of data set: Test A: Antiviral Assay in MT4 Cells. The data set is classed as cell-based, HIV-1.
For another data set, the system named is Human Liver Hepatocytes. Put plainly: Test D: Metabolic Stability in Cultured Human Liver Hepatocytes. The data set is classed as in vitro ADME.
Data set [1] can be described thus: Test C: Pharmacokinetic analysis following intravenous administration to beagle dogs. In kind it is in vivo.
Source text: (§2) Pharmacokinetic Analysis Following Intravenous Administration to Sprague-Dawley Rats and Beagle Dogs and Cynomolgous Monkeys
All IV formulations were in solution.
(§3) Each rat IV dosing group consisted of 3 male SD rats. […] The animals were fasted overnight prior to dose administration and up to 4 hr after dosing. Each dog IV dosing group consisted of 3 male, naïve beagle dogs. At dosing, the animals weighed ˜10-12 kg. The animals were fasted overnight prior to dose administration and up to 2 hr after dosing.
(§4) For the IV infusion group, the test compound was administered by intravenous infusion over 30 minutes. The rate of infusion was adjusted according to the body weight of each animal to deliver a dose of 1 mg/kg at 2 mL/kg.
(§5) Serial venous blood samples (approximately 0.4 mL each for rat and 1.0 mL for dog) were taken at specified time points after dosing from each animal. The blood samples were collected into Vacutainer™ tubes (Becton-Disckinson Corp, New Jersey, USA) containing EDTA as the anti-coagulant and were immediately placed on wet ice pending centrifugation for plasma. Centrifugation began within 1 hour of collection. All samples were placed into 96-well tubes and maintained on dry ice prior to storage at approximately −70° C.
(§6) An LC/MS/MS method was used to measure the concentration of test compounds in plasma.
(§7) Non-compartmental pharmacokinetic analysis was performed on the plasma concentration-time data.
The next data set is described as follows: pKa of Compound 1. In kind it is physicochemical. From the text: (§1) In solution, the two atropisomers coexist in the ratio of about 1:5 to 1:8 (Isomer A:Isomer B), depending on temperatures and pH.
Data set [2] can be described thus: Atropisomer equilibrium and interconversion in solution. The data set is classed as physicochemical.
Source text: as §1

Data set [3] in a line: Test C: Pharmacokinetic analysis following intravenous administration to Sprague-Dawley rats. In kind it is in vivo.
Source text: as §2
All IV formulations were in solution.
as §3, §4, §5, §6, §7
The nature of data set [4]: Pharmacokinetic profile after subcutaneous dosing of formulations in dogs (Formulation Examples A-D). The data set is classed as in vivo. To be noted: solution in 10% ethanol, 13% water, 6 mg/kg. The procedure: The suspension was administered to dogs subcutaneously at a dose of 6 mg/kg and the pharmacokinetic (PK) profile was determined.
The solution was administered to dogs subcutaneously at a dose of 6 mg/kg and the pharmacokinetic (PK) profile was determined.
Subjects were orally dosed with this formulation at 6 mg/kg. […] The solution was administered to dogs subcutaneously at a dose of 6 mg/kg and the pharmacokinetic (PK) profile was determined.

Method for HIV-IIIb: 1 mL Aliquots of MT4 cells were pre-infected for 3 hours at 37° C. with 25 μL of cell growth medium (mock-infected) or a fresh 1:250 dilution of an HIV-IIIb concentrated ABI stock (0.004 m.o.i.). Infected and uninfected cells were diluted in cell growth media and 35 μL (2000 cells) was added to each well of the assay plates.
Assay plates were then maintained in a humidified, 5% CO2 incubator at 37° C. After 5 days of incubation, 25 μL of 2× concentrated CellTiter-Glo™ Reagent (catalog #G7573, Promega Biosciences, Inc., Madison, WI) was added to each well of the assay plate. Cell lysis was carried out by incubating at room temperature for 10 minutes and then chemiluminescence was read using an Envision plate reader (PerkinElmer).
Method for Human Liver Hepatocytes: Test D. Metabolic Stability in Cultured Human Liver Hepatocytes
The final hepatocyte concentration was 1 million cells/mL. The hepatocyte/compound reaction mixture was dissolved in InVitroGRO™ KHB buffer (catalog #Z99074, BioreclamationIVT, Inc., Baltimore, MD) at pH 7.4. The incubations were performed in duplicate. A cell free control and a positive control were included in the incubations. The incubations were carried out with gentle shaking in a 37° C. incubator under a humid atmosphere of 95% air/5% CO2 (v/v). Aliquots (100 mL) were removed after 0, 1, 3, and 6 hours and added to 200 mL quenching solution that comprised 0.1% (v/v) TFA in 5% water/95% acetonitrile (v/v). The samples were placed on a shaker for 10 min, followed by centrifugation at 3000 g for 30 min. The samples of the supernatant were analyzed on a Dionex HPLC/PerkinElmer Flow Scintillation Analyzer as described below.
The column was a Phenomenex Synergi fusion RP (150×4.6 mm, 4 mm) maintained at 32 degrees Celsius. Mobile Phase A consisted of 0.1% (v/v) TFA in 99% water/1% acetonitrile (v/v). Mobile Phase B consisted of 0.1% (v/v) TFA in 5% water/95% acetonitrile (v/v). The flow rate was 1 mL/min using a sample injection volume of 100 mL.
Metabolic stability was determined by measuring the change in relative abundance of metabolites and parent over time and calculating from it the rate of disappearance of the parent compound. The stability data was utilized to calculate predicted human hepatic clearance values according to methods known in the art.

`Cn1nc(NS(C)(=O)=O)c2c(Cl)ccc(-c3ccc(C#CC(C)(C)O)nc3[C@H](Cc3cc(F)cc(F)c3)NC(=O)Cn3nc(C(F)(F)F)c4c3C(F)(F)[C@@H]3C[C@H]43)c21` [Compound B, reference compound] showed an EC50 in the data set with HIV-IIIb (Human immunodeficiency virus 1, IIIB, MT4, 120 h) of 2.99 nM.

For `CC(C)(C#Cc1ccc(-c2ccc(Cl)c3c(NS(C)(=O)=O)nn(CC(F)(F)F)c23)c([C@H](Cc2cc(F)cc(F)c2)NC(=O)Cn2nc(C(F)(F)F)c3c2C(F)(F)[C@@H]2C[C@H]32)n1)S(C)(=O)=O` [Compound 1, N—((S)-1-(3-(4-Chloro-3-(methylsulfonamido)-1-(2,2,2-trifluoroethyl)-1H-indazol-7-yl)-6-(3-methyl-3-(methylsulfonyl)but-1-yn-1-yl)pyridin-2-yl)-2-(3,5-difluorophenyl)ethyl)-2-((3bS,4aR)-5,5-difluoro-3-(trifluoromethyl)-3b,4,4a,5-tetrahydro-1H-cyclopropa[3,4]cyclopenta[1,2-c]pyrazol-1-yl)acetamide], the “Predicted Human Hepatic Clearance” value in the data set on Human Liver Hepatocytes (calculated from stability in pooled cryopreserved human hepatocytes, […], up to 6 hours) is 0.17 mL/min/kg. Further, the “times more stable in human hepatocytes (lower predicted hepatic clearance)” value in the data set on Human Liver Hepatocytes (relative to compound A) is reported as “about 9 times”; with Human Liver Hepatocytes (relative to compound B) it was “about 4 times”. Also, the “times longer in vivo terminal half-life in dog” value in data set [1] (relative to compound A) is “about 5 times”; in data set [1] (relative to compound B), “about 4 times”. The entries for the “times lower in vivo clearance in dog” value in data set [1] (relative to compound A) and in data set [1] (relative to compound B) were “about 3 times” and “about 4 times”, respectively. Moreover, the pKa in the data set “pKa of Compound 1” (weak acid, at sulfonamide) was 6.7; in “pKa of Compound 1” (weak base, at pyridine), below 1. In addition, in data set [2] (in solution at 37° C., read-out: t½ of re-equilibration of separated atropisomers), the half-life fell in the range of 1 to 2 h. Also, the rotational energy barrier result in data set [2] (rotation along one of the C—C bonds (atropisomers)) is “about 24 kcal/mol”. For the same compound, the “times more potent in HIV antiviral assay” value is “about 9 times” in the data set on HIV-IIIb (relative to compound A) and “about 16 times” in the data set with HIV-IIIb (relative to compound B). Further, the “times longer in vivo terminal half-life in rat” value is given as “about 14 times” in data set [3] (relative to compound A) and “about 9 times” in data set [3] (relative to compound B). Moreover, the “times lower in vivo clearance in rat” value in data set [3] (relative to compound A) is “about 10 times”; in data set [3] (relative to compound B), “about 8.6 times”. Further, the “plasma concentration of Compound 1 at day 28” value in data set [4] (77% PEG 200 (200 mg/mL) with 1.2 molar equivalent NaOH (in situ sodium salt), FIG. 29) is recorded as “measurable”; in data set [4] (77% glycofurol (200 mg/mL) with 1.2 molar equivalent NaOH (in situ sodium salt), FIG. 30) it was “measurable”.

The EC50 is the midpoint of the concentration-response curve. A low value points to a more potent agent. As a reminder, the pKa is the pH at which an ionisable group is half protonated. The low end stands for a stronger acid or weaker base, the high end for a weaker acid or stronger base.
